Source: patent US20110104361A1, “TASTE-IMPROVING AGENT FOR POTASSIUM SALT OR POTASSIUM SALT-CONTAINING FOOD OR DRINK” (OGAWA & CO., LTD., priority 2008, published 2011)

Experiments:
[1] = Organoleptic evaluation, ramen soup (Test Example 11); details: addition quinic acid-containing composition 5.0 ppm, spilanthol 0.1 ppm, shallot extract 10.0 ppm, panel of 10 experts vs control
Experimental: The taste-improving agents obtained in Production Examples 1-5 were used to examine the taste-improving effects on potassium salts or potassium salt-containing foods or drinks. [table] To reduced-sodium ramen soup having the following formulation 4 there were added each of the agents for improving taste of Production Examples 2, 4 and 5 so that the contents of the quinic acid-containing composition (Production Example 2), purified spilanthol (Production Example 4) and shallot extract (Production Example 5) in the soup were as listed in Table 8, and an organoleptic evaluation was conducted by a panel of 10 experts based on the rating scale shown in Table 1, with a product containing no agent for improving taste according to the invention, as the control. [table] A 20 g portion of the powder above was dissolved in 500 g of hot water.

[2] = Organoleptic evaluation, meat sauce (Test Example 14); details: addition quinic acid-containing composition 5.0 ppm, spilanthol 0.1 ppm, shallot extract 10.0 ppm, panel of 10 experts vs control
Experimental: (§1) The taste-improving agents obtained in Production Examples 1-5 were used to examine the taste-improving effects on potassium salts or potassium salt-containing foods or drinks. [table] To reduced-sodium meat sauce having the following formulation 8 there were added each of the agents for improving taste of Production Examples 1, 2, 4 and 5 so that the contents of the quinic acid-containing compositions (Production Examples 1 and 2), purified spilanthol (Production Example 4) and shallot extract (Production Example 5) in the meat sauce were as listed in Table 12, and an organoleptic evaluation was conducted by a panel of 10 experts based on the rating scale shown in Table 1, with a product containing no agent for improving taste according to the invention, as the control. [table]

[3] = Organoleptic evaluation, cream stew (second Test Example 13); details: addition quinic acid-containing composition 5.0 ppm, spilanthol 0.1 ppm, shallot extract 10.0 ppm, panel of 10 experts vs control
Experimental: as §1, with “reduced-sodium cream stew” for “reduced-sodium meat sauce”, “formulation 7” for “formulation 8”, “the stew” for “the meat sauce”, “Table 11,” for “Table 12,”

[4] = Organoleptic evaluation, potassium chloride aqueous solution (Test Example 5); details: 0.75 wt % KCl aqueous solution; addition quinic acid-containing composition 5.0 ppm, spilanthol 0.1 ppm, shallot extract 10.0 ppm; panel of 10 experts vs control without agent
Experimental: The taste-improving agents obtained in Production Examples 1-5 were used to examine the taste-improving effects on potassium salts or potassium salt-containing foods or drinks. [table] To a 0.75 wt % potassium chloride aqueous solution there were added each of the agents for improving taste of Production Examples 1-5, so that the content of the quinic acid-containing compositions (Production Examples 1 and 2), spilanthol (Production Examples 3 and 4) or shallot extract (Production Example 5) in the potassium chloride aqueous solution was as listed in Table 2, and an organoleptic evaluation was conducted by a panel of 10 experts based on the rating scale shown in Table 1, with a product containing no agent for improving taste according to the invention, as the control.

CC=CC=CCCC=CC(=O)NCC(C)C [Purified spilanthol (Prod. Ex. 4), N-isobutyl-2,6,8-decatrieneamide]
Chicken flavor [1]: − (No effect/change (fewer than 3/10 panelists noticed an effect compared to the control))
Salty taste [1]: + (Somewhat noticeable effect (at least 3/10 panelists noticed an effect compared to the control))
Unpleasant taste [1]: + (Somewhat noticeable effect (at least 3/10 panelists noticed an effect compared to the control))
Meat flavor [2]: − (No effect/change (fewer than 3/10 panelists noticed an effect compared to the control))
Metallic taste [2]: + (Somewhat noticeable effect (at least 3/10 panelists noticed an effect compared to the control))
Tomato flavor [2]: − (No effect/change (fewer than 3/10 panelists noticed an effect compared to the control))
Milk flavor [3]: − (No effect/change (fewer than 3/10 panelists noticed an effect compared to the control))
Sweet taste [3]: − (No effect/change (fewer than 3/10 panelists noticed an effect compared to the control))
Unpleasant taste [3]: + (Somewhat noticeable effect (at least 3/10 panelists noticed an effect compared to the control))
Metallic taste [4]: ++ (Noticeable effect (at least 5/10 panelists noticed an effect compared to the control))
